{
  "source": "patent US20120269834A1",
  "about": "“IMMUNOGLOBULIN CLEAVAGE FRAGMENT VACCINE COMPOSITIONS” (priority 2010, published 2012)",
  "key": {"[1]": {"target": "Fab fragment of the 2095-2 antibody", "details": "25° C; for kd / ka: 1:1 (Langmuir) model; for ka: global fit of three Fab surface densities; for Kd: calculated KD", "method": "The specificity of binding was further examined using a Fab fragment of the 2095-2 antibody using a surface plasmon resonance platform (Biacore). Briefly, the Fab was immobilized to a CM5 sensor chip in a Biacore 2000 at three different surface densities (8500, 1650, and 350 RU) using standard NHS/EDC coupling. The running buffer contained 10 mM HEPES pH 7.4, 150 mM NaCl, and 0.01% Tween-20. Data were collected at 25° C.\nThree N-terminally biotinylated peptides were tested for binding of to the immobilized Fab: WT, representing the expected sequence of a peptide fragment from a human IgG1 cleavage site after cleavage by the Streptococcus pyogenes IdeS protease; E233A, representing a variant of having a single alanine substitution at the amino acid residue four positions upstream of the C-terminus; and L234A, a variant having a single alanine substitution at the amino acid residue three positions upstream from the C-terminus. The peptides were modified by substituting serine for cysteine to make them compatible with the coupling chemistry and preserve the monomeric structure.\nPeptides Wild type and E233A were tested in a 3-fold dilution series using 588 nM and 2.9 uM as the highest concentration, respectively. Peptide L234A was tested at 14.7 uM as the highest concentration in a 2-fold dilution series. Each peptide concentration series was tested in triplicate over the three different density Fab surfaces. The association and dissociation were monitored for 1 minute. Surfaces were regenerated with a 12 second injection of 1/500 dilution of phosphoric acid."}, "[2]": {"target": "human IgG1 (Homo sapiens, UniProt P01857)", "sequence (P01857 1-330 isoform P01857-1, other chains not shown)": "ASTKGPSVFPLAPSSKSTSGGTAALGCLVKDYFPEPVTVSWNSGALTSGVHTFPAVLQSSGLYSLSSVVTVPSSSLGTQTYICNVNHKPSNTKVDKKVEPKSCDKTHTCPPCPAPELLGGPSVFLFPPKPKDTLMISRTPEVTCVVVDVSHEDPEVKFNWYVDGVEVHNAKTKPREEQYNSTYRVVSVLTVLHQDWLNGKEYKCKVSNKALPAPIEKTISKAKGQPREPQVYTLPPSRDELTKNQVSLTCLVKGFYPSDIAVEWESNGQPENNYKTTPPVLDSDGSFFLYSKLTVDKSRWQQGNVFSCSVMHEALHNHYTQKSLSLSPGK", "experiment": "action of human and bacterial proteases on human IgG1 (Table 1)", "assay_type": "biochemical", "details": "for Major Product: None = no detectable cleavage in 24 hours; for Cleaved Site: human IgG1 heavy chain, EU numbering", "method": "Table 1 is a summary of the findings concerning the action of human proteases and two bacterial proteases on human IgG1. The term “Coagulation proteinases” refers to serum coagulation cascade proteins including; FXIIa, FIXa, FXa, thrombin and activated protein C; plasmin was plasminogen co-incubated with plasminogen activators; tPA, streptokinase and staphylokinase; “plasminogen activators alone” are without plasminogen; and the MMPs were recombinant proteinases obtained either as the active form or the pro-enzyme as detailed in the Materials; and “None” denotes no detectable cleavage in 24 hours. Except where indicated all enzymes where human. The residue designations are for the EU numbering system for the IgG1 antibody heavy chain where the 25 residues of SEQ ID NO: 1 corresponds to residues 219 through 243 of the complete mature heavy chain."}, "[3]": {"test_system": "cleavage site specific analogueue peptide", "experiment": "ELISA titers to the peptide analogueue after immunization of rabbits", "assay_type": "in vivo, rabbit", "details": "reciprocal of the dilution at which a signal was detectable, individual immunized rabbits", "excerpt": "The procedure described in Example 3 verified that test subject rabbits have had previously developed immune titers to Staph. aureus antigens which would provide for natural bacterial targeting antibodies. To determine if rabbits would generated a sufficiently specific and robust cleavage site specific antibody response after vaccination, with cleavage site peptides, to protect against a bacterial challenge, the following experiment was perfomed where rabbits were immunized with a GluV8-cleavage site peptide analogueue (residues 7-15 of SEQ ID NO: 1, […]) conjugated to the immunogen KLH.\nFollowing immunization, the reactivity of rabbit serum to the peptide analogueue was tested by ELISA. […] Cleavage site specific antibodies were also detected in the wiffle ball fluids of all six rabbits, with the same animal (657) having a low level of detectible antibodies."}, "[4]": {"test_system": "S. aureus (ATCC 29213)", "experiment": "wiffle ball (tissue cage) S. aureus infection model in rabbits", "assay_type": "in vivo", "excerpt": "In order to test the capacity of cleavage site specific antibodies to rescue cleaved IgGs in vivo, a model for bacterial infection employing a “tissue cage” (Fernandez J A, et. al. (1997) Antimicrob. Agents Chemother. 43(3):667-671) was adopted. In this system, a wiffle ball is surgically implanted subcutaneously in the dorsal cervical area. The model allows the infectious agents to be localized within an easily accessible fluid compartment, a tissue pouch, and has been used to assess the efficacy of antibiotics against bacteria.\nIn the final phase of the study, the immunized and non-immunized rabbits were inoculated with 6.2 log10 colony forming units (CFUs) of S. aureus (ATCC 29213) directly into the wiffle-ball compartments.\nThe bacterial counts and test subject viability were monitored over the course of two weeks for bacterial counts and survival. The data shown in FIG. 9 indicate that during the first week of the study, the average bacterial counts for control animals were several logs higher than cleavage site specific vaccinated animals. For example, on day 2 the control had 7.2 log10 CFU/ml wiffle ball fluid while the immunized group had 5.2 log10 CFU/ml wiffle ball fluid."}, "[5]": {"test_system": "platelets", "experiment": "circulating platelet counts in dogs", "assay_type": "in vivo, dog", "method": "First, the c7E3 antibody antigen binding and platelet depletion parameters were established in dogs.\nc7E3 IgG and c7E3 IgG single-cleaved by IdeS protease were also compared in vivo. Three groups of 5 animals received either saline control, intact c7E3 IgG (0.05 mg/kg) or c7E3 single-cleaved IgG (0.05 mg/kg). Platelet counts were monitored at baseline and at 2, 24, 48, 72 and 96 hours post-administration. Limiting the study to 5 days minimized the likelihood of anti-c7E3 immune responses that might confound the interpretation of the results. The results are presented in FIG. 3 as the mean platelet count±SD for each animal group at each time point. The extent of the error bars connotes the normal variability of platelet counts in different animals (for example, the predose counts for the 5 animals in the single-cleaved IgG treatment group were 175,000, 355,000, 305,000, 276,000 and 334,000 per μL, respectively).\nTo be consistent with the prior experiments, the variants of c7E3 were all administered at the 0.05 mg/kg dose. The unique aspect of the experiment (groups 6 and 7) involves the infusion of the first targeting mAb followed by the cleavage site specific mAb after a 10 minute delay. […] Platelet counts were monitored over a 96-hour period. […]"}, "[6]": {"test_system": "platelet surface IIb/III3 receptors", "experiment": "platelet aggregation assay", "assay_type": "cell-based", "details": "5 μM ADP; compared with intact c7E3 IgG", "method": "c7E3 inhibits platelet aggregation by binding to platelet surface IIb/III3 receptors—thereby blocking the ability of fibrinogen to bind to the receptors on activated platelets and to clump them together. The respective inhibitory profiles of intact and single-cleaved c7E3 IgG were tested in a platelet aggregation assay. Platelet aggregation is measured as an increase of light transmission through a platelet suspension after activation with a physiological agonist. The inhibition is compared to control aggregation to 5 μM adenosine diphosphate (ADP). The percent inhibition was calculated as: control aggregation—test aggregation X 100%, divided by control aggregation."}},
  "note": "Several values for one entry are separate records, joined by “and”; a condition that tells them apart may be missing. Equal entries are not always repeated. Ends that are not written are not given here. * marks the point of attachment. Biotin = O=C1N[C@H]2[C@H](CS[C@H]2CCCCC(=O)*)N1",
  "data": [
    {"substance": "Biotin-TSPPSPAPEALG [L234A]", "values": [
      {"measurement": "kd", "setting": "[1]", "result": "1.03 ± 0.01", "unit": "s⁻¹"},
      {"measurement": "ka", "setting": "[1]", "result": "1.24 ± 0.01 M-1s-1 × 10^−5"},
      {"measurement": "Kd", "setting": "[1]", "result": 8340, "unit": "nM"}
    ]},
    {"substance": "Neutrophil elastase: human serine endopeptidase", "values": [
      {"measurement": "Major Product", "setting": "[2]", "result": "Fab + Fc"},
      {"measurement": "Cleaved Site", "setting": "[2]", "result": "Thr^223-"}
    ]},
    {"substance": "Biotin-TSPPSPAPALLG [E233A]", "values": [
      {"measurement": "kd", "setting": "[1]", "result": "0.1070 ± 0.04", "unit": "s⁻¹"},
      {"measurement": "ka", "setting": "[1]", "result": "7.29 ± 0.03 M-1s-1 × 10^−5"},
      {"measurement": "Kd", "setting": "[1]", "result": 147, "unit": "nM"}
    ]},
    {"substance": "C-T-S-P-P-S-P-S-P-A-P-E (CTSPPSPSPAPE; also: conjugated to KLH) [Glutamyl endopeptidase cleavage site analogueue peptide conjugated to keyhole limpet hemocyanin, used to vaccinate rabbits]", "values": [
      {"measurement": "Serum (titer)", "setting": "[3]", "result": "640 and 12,800 and 51,000 and 820,000 and 205,000"},
      {"measurement": "Wiffle ball (titer)", "setting": "[3]; wiffle ball fluid", "result": "3,200 and 12,800 (3×) and 51,000 and 320"},
      {"measurement": "average bacterial counts", "setting": "[4]; day 2, immunized rabbits inoculated with 6.2 log10 CFUs", "result": "5.2 log10 CFU/ml wiffle ball fluid"},
      {"measurement": "animals viable", "setting": "[4]; end of the two week study", "result": 100, "unit": "%"}
    ]},
    {"substance": "Glutamyl endopeptidase I (Glu V8 protease): glutamyl endopeptidase I from Staph. aureus", "values": [
      {"measurement": "Major Product", "setting": "[2]", "result": "F(ab′)2 +"},
      {"measurement": "Cleaved Site", "setting": "[2]", "result": "Glu^233-"}
    ]},
    {"substance": "Stromelysin (MMP-3): recombinant human MMP", "values": [
      {"measurement": "Major Product", "setting": "[2]", "result": "F(ab′)2 +"},
      {"measurement": "Cleaved Site", "setting": "[2]", "result": "Pro^232-"}
    ]},
    {"substance": "Cathepsin G: human serine endopeptidase", "values": [
      {"measurement": "Major Product", "setting": "[2]", "result": "F(ab′)2 +"},
      {"measurement": "Cleaved Site", "setting": "[2]", "result": "Glu^233-"}
    ]},
    {"substance": "c7E3 single-cleaved IgG: c7E3 IgG single-cleaved in the lower hinge by IdeS protease", "values": [
      {"measurement": "effect on platelet numbers", "setting": "[5]; 0.05 mg/kg, groups of 5 animals, monitored to 96 hours", "result": "essentially without effect"},
      {"measurement": "effect on platelet numbers", "setting": "[5]; FIG. 12 study, groups of 3 animals, c7E3 variants 0.05 mg/kg, 2095-2 0.5 mg/kg", "result": "without effect"},
      {"measurement": "binding/inhibition of platelet aggregation after single lower hinge cleavage by IdeS", "setting": "[6]", "result": "no loss of binding/inhibition"}
    ]},
    {"substance": "Cathepsin D: human protease", "values": [
      {"measurement": "Major Product", "setting": "[2]", "result": "None"}
    ]},
    {"substance": "Matrilysin (MMP-7): recombinant human MMP", "values": [
      {"measurement": "Major Product", "setting": "[2]", "result": "F(ab′)2 +"},
      {"measurement": "Cleaved Site", "setting": "[2]", "result": "Leu^234-"}
    ]},
    {"substance": "Interstitial collagenase (MMP-1): recombinant human MMP", "values": [
      {"measurement": "Major Product", "setting": "[2]", "result": "None"}
    ]},
    {"substance": "Collagenase 2 (MMP-8): recombinant human MMP", "values": [
      {"measurement": "Major Product", "setting": "[2]", "result": "None"}
    ]},
    {"substance": "Biotin-TSPPSPAPELLG [Wt]", "values": [
      {"measurement": "kd", "setting": "[1]", "result": "0.00443 ± 0.02", "unit": "s⁻¹"},
      {"measurement": "ka", "setting": "[1]", "result": "5.22 ± 0.04 M-1s-1 × 10^−5"},
      {"measurement": "Kd", "setting": "[1]", "result": 8.5, "unit": "nM"}
    ]}
  ]
}
